Results reported in patent US5023240A, “Derivatives of tylosin and 10,11,12,13-tetrahydro tylosin and their use in pharmaceuticals” (Sour Pliva, priority 1987, dated 1991).
Values after ≈ are worked out from the molar mass of the structure shown.

How the values were obtained:
Type in all cases: cell-based
[1] = test system: Strep. agalact.; assay: antimicrobial activity, MIC by agar dilution method, Strep. agalact.; set-up: key to Minimal Inhibitory Concentration: R: resistant; settings: 2 test strains, MIC refers to over 90% of tested strains; for MIC90: read-out: Minimal Inhibitory Concentration
Description: (§1) The antimicrobial activity of some compounds of the present invention was tested on the laboratory strain Sarcina lutea and on 50 various strains isolated from fresh patients' samples. The minimal inhibitory concentration (MIC) was determined by the agar dilution method as described by M. D. Finegold and J. W. Martin, Diagnostic Microbiology, Mosby Comp., St. Louis 1982, p. 536-540.

[2] = test system: Staph. aureus; assay: antimicrobial activity, MIC by agar dilution method, Staph. aureus; set-up: key to Minimal Inhibitory Concentration: R: resistant; settings: 13 test strains, MIC refers to over 90% of tested strains; for MIC90: Staphylococcus aureus, read-out: Minimal Inhibitory Concentration
Description: as §1

[3] = test system: Strep. pneumoniae; assay: antimicrobial activity, MIC by agar dilution method, Strep. pneumoniae; set-up: key to Minimal Inhibitory Concentration: R: resistant; settings: 3 test strains, MIC refers to over 90% of tested strains; for MIC90: Streptococcus pneumoniae, read-out: Minimal Inhibitory Concentration
Description: as §1

[4] = test system: Staph. saproph.; assay: antimicrobial activity, MIC by agar dilution method, Staph. saproph.; set-up: key to Minimal Inhibitory Concentration: R: resistant; settings: 6 test strains, MIC refers to over 90% of tested strains; for MIC90: read-out: Minimal Inhibitory Concentration
Description: as §1

[5] = test system: Strep. faecalis; assay: antimicrobial activity, MIC by agar dilution method, Strep. faecalis; set-up: key to Minimal Inhibitory Concentration: R: resistant; settings: 17 test strains, MIC refers to over 90% of tested strains; for MIC90: Enterococcus faecalis, read-out: Minimal Inhibitory Concentration
Description: as §1

[6] = test system: Sarcina lutea; assay: antimicrobial activity, MIC by agar dilution method, Sarcina lutea; settings: Micrococcus luteus, 4 test strains, MIC refers to over 90% of tested strains, read-out: Minimal Inhibitory Concentration
Description: as §1

Q: `CCC1OC(=O)CC(O)C(C)C(OC2OC(C)C(OC3CC(C)(O)C(O)C(C)O3)C(N(C)C)C2O)C(CCO)CC(C)C(=O)C=CC(C)=CC1COC1OC(C)C(O)C(OC)C1OC` (centres unmarked) [Ia, 20-deoxo-20-hydroxy tylosin, reference compound] was tested. Which MIC90 [1] did it give?
A: 16 µg/mL (≈ 17.4 µM)

Q: What about the MIC90 [2] of the same molecule?
A: 4 to 16 µg/mL (≈ 4.36 to 17.4 µM)

Q: And the MIC90 [3]?
A: 0.5 to 1 µg/mL (≈ 0.545 to 1.09 µM)

Q: What about the MIC90 [4] of the same molecule?
A: 1 to 16 µg/mL (≈ 1.09 to 17.4 µM)

Q: And the MIC90 [5]?
A: 64 µg/mL (≈ 69.7 µM)

Q: And the MIC90 [6]?
A: 1 µg/mL (≈ 1.09 µM)

Q: Which MIC90 [1] does the source give for `CCC1OC(=O)CC(O)C(C)C(OC2OC(C)C(OC3CC(C)(O)C(O)C(C)O3)C(N(C)C)C2O)C(CCO)CC(C)C(=NO)C=CC(C)=CC1COC1OC(C)C(O)C(OC)C1OC` (centres unmarked) [XVIII, relomycin oxime] here?
A: 64 µg/mL (≈ 68.6 µM)

Q: What about the MIC90 [2] of the same molecule?
A: 64 µg/mL (≈ 68.6 µM)

Q: And the MIC90 [3]?
A: 0.5 µg/mL (≈ 0.536 µM)

Q: What about the MIC90 [4] of the same molecule?
A: 4 to 16 µg/mL (≈ 4.29 to 17.1 µM)

Q: And the “Minimal Inhibitory Concentration” value [5]?
A: R

Q: And the MIC90 [6]?
A: 0.5 µg/mL (≈ 0.536 µM)

Q: `CCC1OC(=O)CC(O)C(C)C(OC2OC(C)C(OC3CC(C)(O)C(O)C(C)O3)C(N(C)C)C2O)C(CC=NO)CC(C)C(=O)C=CC(C)=CC1COC1OC(C)C(O)C(OC)C1OC` (centres unmarked) [XII, Tylosin aldoxime] was tested. Which MIC90 [1] did it give?
A: 0.5 µg/mL (≈ 0.537 µM)

Q: What about the MIC90 [2] of the same molecule?
A: 1 to 4 µg/mL (≈ 1.07 to 4.3 µM)

Q: And the MIC90 [3]?
A: 0.5 µg/mL (≈ 0.537 µM)

Q: What about the MIC90 [4] of the same molecule?
A: 0.5 to 2 µg/mL (≈ 0.537 to 2.15 µM)

Q: And the MIC90 [5]?
A: 1 to 4 µg/mL (≈ 1.07 to 4.3 µM)

Q: What about the MIC90 [6] of the same molecule?
A: 0.5 µg/mL (≈ 0.537 µM)

Q: Which results are given for `CCC1OC(=O)CC(O)C(C)C(OC2OC(C)C(OC3CC(C)(O)C(O)C(C)O3)C(N(C)C)C2O)C(CC=O)CC(C)C(O)CCC(C)CC1COC1OC(C)C(O)C(OC)C1OC` (centres unmarked) [VI, 9-deoxo-9-hydroxy-10,11,12,13-tetrahydro tylosin]?
A: MIC90 [1]: 2 to 8 µg/mL (≈ 2.17 to 8.68 µM); MIC90 [2]: 4 µg/mL (≈ 4.34 µM); MIC90 [3]: 0.5 µg/mL (≈ 0.542 µM); MIC90 [4]: 2 to 4 µg/mL (≈ 2.17 to 4.34 µM); MIC90 [5]: 8 to 32 µg/mL (≈ 8.68 to 34.7 µM); MIC90 [6]: 0.5 µg/mL (≈ 0.542 µM)

Q: How did the MIC90 [2] turn out when `CCC1OC(=O)CC(O)C(C)C(OC2OC(C)C(OC3CC(C)(O)C(O)C(C)O3)C(N(C)C)C2O)C(CC=NO)CC(C)C(=NO)CCC(C)CC1COC1OC(C)C(O)C(OC)C1OC` (centres unmarked) [XX, 10,11,12,13tetrahydro tylosin dioxime] was run?
A: 16 to 32 µg/mL (≈ 16.8 to 33.7 µM)

Q: What about the MIC90 [3] of the same molecule?
A: 2 to 4 µg/mL (≈ 2.1 to 4.21 µM)

Q: What about the MIC90 [4] of the same molecule?
A: 16 µg/mL (≈ 16.8 µM)

Q: And the MIC90 [6]?
A: 1 µg/mL (≈ 1.05 µM)

Q: `CCC1OC(=O)CC(O)C(C)C(OC2OC(C)C(OC3CC(C)(O)C(O)C(C)O3)C(N(C)C)C2O)C(CC=O)CC(C)C(=O)CCC(C)CC1COC1OC(C)C(O)C(OC)C1OC` (centres unmarked) [II, 10,11,12,13-tetrahydro tylosin] was tested. Which MIC90 [1] did it give?
A: 1 to 2 µg/mL (≈ 1.09 to 2.17 µM)

Q: What about the MIC90 [2] of the same molecule?
A: 2 to 4 µg/mL (≈ 2.17 to 4.35 µM)

Q: What about the MIC90 [3] of the same molecule?
A: 0.5 µg/mL (≈ 0.543 µM)

Q: What about the MIC90 [4] of the same molecule?
A: 1 to 2 µg/mL (≈ 1.09 to 2.17 µM)

Q: What about the MIC90 [5] of the same molecule?
A: 4 to 8 µg/mL (≈ 4.35 to 8.69 µM)

Q: What about the MIC90 [6] of the same molecule?
A: 0.5 µg/mL (≈ 0.543 µM)

Q: How did the MIC90 [2] turn out when `CCC1OC(=O)CC(O)C(C)C(OC2OC(C)C(OC3CC(C)(O)C(O)C(C)O3)C(N(C)C)C2O)C(CC=NO)CC(C)C(=O)CCC(C)CC1COC1OC(C)C(O)C(OC)C1OC` (centres unmarked) [XIX, 10,11,12,13-tetrahydro tylosin aldoxime] was run?
A: 8 to 16 µg/mL (≈ 8.55 to 17.1 µM)

Q: What about the MIC90 [3] of the same molecule?
A: 1 µg/mL (≈ 1.07 µM)

Q: What about the MIC90 [4] of the same molecule?
A: 8 µg/mL (≈ 8.55 µM)

Q: What about the MIC90 [6] of the same molecule?
A: 0.5 µg/mL (≈ 0.535 µM)

Q: With `CCC1OC(=O)CC(O)C(C)C(OC2OC(C)C(OC3CC(C)(O)C(O)C(C)O3)C(N(C)C)C2O)C(CCO)CC(C)C(=NO)CCC(C)CC1COC1OC(C)C(O)C(OC)C1OC` (centres unmarked) [XXIII, 10,11,12,13-tetrahydro relomycin oxime] as the molecule, how does the “Minimal Inhibitory Concentration” value [1] read?
A: R

Q: And the “Minimal Inhibitory Concentration” value [2]?
A: R

Q: And the MIC90 [3]?
A: 64 µg/mL (≈ 68.3 µM)

Q: And the “Minimal Inhibitory Concentration” value [4]?
A: R

Q: And the “Minimal Inhibitory Concentration” value [5]?
A: R

Q: And the MIC90 [6]?
A: 0.5 µg/mL (≈ 0.534 µM)

Q: What does the source list for `CCC1OC(=O)CC(O)C(C)C(OC2OC(C)C(OC3CC(C)(O)C(O)C(C)O3)C(N(C)C)C2O)C(CCO)CC(C)C(=O)CCC(C)CC1COC1OC(C)C(O)C(OC)C1OC` (centres unmarked) [III, 10,11,12,13-tetrahydro relomycin]?
A: Minimal Inhibitory Concentration [1]: R; MIC90 [2]: 32 µg/mL (≈ 34.7 µM); Minimal Inhibitory Concentration [3]: R; Minimal Inhibitory Concentration [4]: R; Minimal Inhibitory Concentration [5]: R; MIC90 [6]: 1 µg/mL (≈ 1.08 µM)
